Where “and” joins values, the source holds several entries; their conditions need not be identical. Equal values may be shown once. Where a name gives a salt, the structure may show the parent alone. The star is where a group is joined. ZP1 = ZinPyr-1 zinc sensor: fluorescein platform with two dipicolylamine metal-binding arms, attached via its 6-CO2H; Palmitoyl = CCCCCCCCCCCCCCCC(=O)*
Legend:
[1] = 50 mM PIPES buffer (pH 7), 100 mM KCl; read-out: Kd-Zn (known); cited from earlier work
[2] = in 0.1 M H2SO4; cited from earlier work
HeLa cells [3] = experiment: Live cell imaging of zinc-induced fluorescence turn-on; format: cell-based
Experimental: To assess the ability of Palm-ZP1 to function within a cellular environment, we conducted live cell imaging experiments. HeLa cells were incubated with a 10 μM solution of Palm-ZP1 in Dulbecco's Modified Eagle Medium (DMEM) for 30 min (37° C., 5% CO2) prior to imaging. Initial cell images had minimal ZP1 emission, consistent with the low quantum yield for the apo form of the sensor. […] Subsequent addition of 100 μM EDTA, a cell-impermeable chelator, attenuated the fluorescent signal to initial levels within 5 min, further confirming that the zinc-induced fluorescence increase occurs extracellularly.
(§1) We carried out live cell imaging experiments to determine whether ZQ-MPP could target mitochondria and report on changes in zinc concentrations. HeLa cells were pretreated with a 25 μM solution of ZQ-MPP, which also contained MitoTracker Red as an internal mitochondria tracker (see later examples). […] The localization of ZQ-MPP was investigated with multichannel fluorescence microscopy. Visually, the distribution of MitoTracker Red (FIG. 19b) and ZQ-MPP (FIG. 19c) appear nearly identical. Overlaying the images (FIG. 19d) and calculating the Pearson's correlation coefficient yields an r=0.71±0.01, indicating strong colocalization.
HeLa cells were cultured at 37° C. under a 5% CO2 humidified atmosphere in Dulbecco's Modified Eagle Medium (High Glucose DMEM, Invitrogen) supplemented with 10% fetal bovine serum (FBS, HyClone), penicillin (100 μg/mL), and streptomycin (100 μg/mL). For live cell imaging, cells were seeded in 35-mm poly-D-Lys coated glass-bottom culture dishes (MatTek Corporation).
Palm-ZP1 (10 μM) was incubated for 30 min at 37° C. and 5% CO2 in DMEM. For multichannel imaging and co-localization studies, staining of the plasma membrane was accomplished by addition of Cell Mask Orange (Life Technologies, final concentration 2.5 μg/mL) for 15-20 min. Prior to imaging, cells were rinsed with warm dye- and serum-free DMEM (2×2 mL) and bathed in warm dye- and serum-free DMEM (2 mL). To assess the zinc responsiveness of Palm-ZP1, stock solutions of ZnCl2 (10 mM) were diluted in warm dye- and serum-free DMEM to a final ZnCl2 concentration of 50 μM. The zinc-enriched media was exchanged in the cell culture dish directly on the microscope stage. […]
(§2) The imaging experiments were performed using a Zeiss Axiovert 200M inverted epifluorescence microscope equipped with an EM-CCD digital camera (Hamamatsu) and a MS200 XY Piezo Z stage (Applied Scientific Instruments). The light source was an X-Cite 120 metal-halide lamp (EXFO) and the fluorescence images were obtained using an oil-immersion objective at 63× magnification. […]

HeLa cells [4] = experiment: Localization study in live cells by multichannel fluorescence microscopy (Pearson's correlation coefficient); format: cell-based
Experimental: We next explored whether Palm-ZP1 selective accumulates in the plasma membrane. […] Quantitative image analysis corroborated these findings: Palm-ZP1 and Cell Mask Orange strongly co-localize with a Pearson's correlation coefficient of r=0.70±0.05.
as §1
Palm-ZP1 (10 μM) was incubated for 30 min at 37° C. and 5% CO2 in DMEM. For multichannel imaging and co-localization studies, staining of the plasma membrane was accomplished by addition of Cell Mask Orange (Life Technologies, final concentration 2.5 μg/mL) for 15-20 min. Prior to imaging, cells were rinsed with warm dye- and serum-free DMEM (2×2 mL) and bathed in warm dye- and serum-free DMEM (2 mL). […]
as §2
To calculate r, images were first deconvoluted using a calculated point-spread function (PSF) map based on emission wavelength, refractive index of the media (n=1.518), and the numerical aperture (1.4). Deconvoluted channels (i.e., sensor and organelle trackers) were merged and analyzed. For each image, a minimum of three regions-of-interest (ROI) were selected and the r-value calculated using an ImageJ plugin. […]

[5] = Photophysical characterization (absorbance, emission, quantum yield) without and with zinc; format: physicochemical; conditions: 25 mM PIPES (pH 7), 50 mM KCl
Experimental: To investigate whether the zinc-sensing properties of the ZP1 moiety withstood the conditions of SPPS, we studied the zinc-binding and photophysical properties of Palm-ZP1 in vitro. Due to the hydrophobic palmitoyl moiety, we used a mixed solvent system consisting of 25 mM PIPES buffer (pH 7) with 50 mM KCl and 50% acetonitrile (v/v). In the absence of zinc, Palm-ZP1 has spectral features that are similar to those of other ZP1 derivatives. Apo Palm-ZP1 has a λabs=518 nm and λem=534 nm (φapo=0.16±0.05) (FIG. 24 and FIG. 29). Addition of ZnCl2 to a solution of Palm-ZP1 produced a characteristic blue-shift in absorption and emission spectra (λabs=505 nm; λem=527 nm) and an enhancement of fluorescence (φZn=0.79±0.05) (FIG. 16a).
ZQ-MPP was prepared manually using standard solid phase methodology. […] In the absence of zinc, ZQ-MPP has two main absorption bands with maxima at λabs=243 and 336 nm (FIG. 26), and is essentially non-emissive (φ≦0.002). Addition of ZnCl2 gives rise to two new features in the absorption spectrum (λabs=264 and 358 nm), and a large increase (>100-fold; φ=0.36±0.01) in fluorescence intensity (λem=484 nm, FIG. 16b, 26, and Table 30).
Spectroscopic measurements for Palm-ZP1 were carried out in a mixed solvent system consisting of 25 mM PIPES buffer (pH 7) with 50 mM KCl and 50% acetonitrile (v/v) (FIG. 24). Except where noted, all fluorescence data were obtained by exciting at 495 nm and observing from 500-650 nm, with 0.1 sec integration time and slit widths of 0.4 mm (1.6 nm). Emission spectra represent the average of three scans. The quantum yield of Palm-ZP1 was referenced to fluorescein in 0.1 M NaOH(aq), which has a known quantum yield of φ=0.95. Lakowicz, J. R. Principles of fluorescence spectroscopy; 2nd ed.; Kluwer Academic/Plenum: New York, 1999.
Characterization of ZQ-MPP (FIG. 26) was performed in 25 mM PIPES buffer (pH 7) with 50 mM KCl, and 50% (v/v) acetonitrile. Zinc affinities (Kd-Zn) were compared to TSQ under identical conditions (FIG. 27 and FIG. 30). Quantum yields for ZQ-MPP and TSQ were reference to quinine sulfate in 0.1 M H2SO4, which has a known quantum yield of (I)=0.58. Eastman, J. W. Photochem. Photobio. 1967, 6, 55.

[6] = Apparent zinc-binding affinity (Kd-Zn) by fluorescence titration in buffered zinc solution; conditions: CaEDTA buffered solution, 25 mM PIPES (pH 7), 50 mM KCl, 50% acetonitrile
Experimental: Apparent zinc-binding affinities (Kd-Zn) were determined by a modified literature procedure. Walkup, G. K.; et al. J. Am. Chem. Soc. 2000, 122, 5644. For each zinc-binding titration, 1 mM EDTA and 2 mM CaCl2 were added to the MeCN/PIPES buffered solution. Palm-ZP1 or ZP1 was added, and the system was allowed to reach equilibrium (30 min). Aliquots of ZnCl2 were successively added, and the emission spectra recorded once the emission spectrum stabilized (˜30 min). The amount of free zinc for a given concentration of total zinc was calculated using the maxchelator program (http://maxchelator.stanford.edu/webmaxc/webmaxcS.htm) based on initial values of 1 mM EDTA, 2 mM CaCl2, an ionic strength of I=0.05 mol dm^−3, and a pH of 7.0. Due to the addition of acetonitrile to the buffered solution, we compared the apparent Kd-Zn for Palm-ZP1 to ZP1 under identical conditions (FIG. 25 and FIG. 29).
Apparent zinc-binding affinities (Kd-Zn) were determined using a modified literature procedure. Fahrni, C. J.; et al. J. Am. […] Aliquots of ZnCl2 were successively added, and the emission spectra recorded once the emission spectrum stabilized (˜30 min). The amount of free zinc for a given concentration of total zinc was calculated using the maxchelator program (http://maxchelator.stanford.edu/webmaxc/webmaxcS.htm) based on initial values of 2 mM EGTA at an ionic strength of I=0.05 mol dm^−3 and a pH of 7.0. […]

Compound: O=C1OC2(c3ccccc31)c1cc(Cl)c(O)c(CN(Cc3ccccn3)Cc3ccccn3)c1Oc1c2cc(Cl)c(O)c1CN(Cc1ccccn1)Cc1ccccn1 [ZP1]
- Kd [1]: 0.7 nM

Compound: C=C[C@H]1C[N@@]2CC[C@H]1C[C@H]2[C@H](O)c1ccnc2ccc(OC)cc12 [quinine sulfate]
- known quantum yield (reference standard) [2]: 0.58

Compound: Palmitic acid-PPPDDK(ZPI)-CONH2 (Palmitoyl-PPPDDK(ZP1)-NH2; not fully specified) [Palm-ZP1]
- increase in ZP1 fluorescence intensity at the peripheral membrane (HeLa cells [3]; 10 μM probe, addition of 50 μM ZnCl2, no ionophore): ~1.7 fold
- time for fluorescent signal to be attenuated to initial levels (HeLa cells [3]; addition of 100 μM EDTA): ≤ 5 min
- Pearson's correlation coefficient r with Cell Mask Orange (plasma membrane) (HeLa cells [4]): 0.70±0.05
- localization in cells (HeLa cells [4]; multichannel fluorescence microscopy): preferentially localize to the plasma membrane
- quantum yield φ, absence of zinc (apo) ([5]; 50% acetonitrile (v/v)): 0.16±0.05
- quantum yield φ, zinc-bound ([5]; 50% acetonitrile (v/v)): 0.79±0.05
- λabs after addition of ZnCl2 ([5]; 50% acetonitrile (v/v)): 505 nm
- λabs, absence of zinc (apo) ([5]; 50% acetonitrile (v/v)): 518 nm
- λem after addition of ZnCl2 ([5]; 50% acetonitrile (v/v)): 527 nm
- λem, absence of zinc (apo) ([5]; 50% acetonitrile (v/v)): 534 nm
- Kd-Zn compared with ZP1 [6]: closely approximates the Kd-Zn of ZP1

Compound: zinquin-FxrFxrFxr-CONH2 [ZQ-MPP]
- increase in ZQ-MPP intensity (HeLa cells [3]; 25 μM probe, addition of 50 μM zinc/pyrithione): ~15 fold
- signal after addition of zinc chelator (HeLa cells [3]; addition of 100 μM TPEN): returned to near baseline levels
- Pearson's correlation coefficient r with MitoTracker Red (mitochondria) (HeLa cells [4]): 0.71±0.01
- quantum yield φ, absence of zinc (apo) ([5]; 50% acetonitrile (v/v)): ≤ 0.002
- quantum yield φ, zinc-bound ([5]; 50% acetonitrile (v/v)): 0.36±0.01
- λabs after addition of ZnCl2 ([5]; 50% acetonitrile (v/v)): 264 nm and 358 nm
- λabs, absence of zinc (apo) ([5]; 50% acetonitrile (v/v)): 243 nm and 336 nm
- λem after addition of ZnCl2 ([5]; 50% acetonitrile (v/v)): 484 nm
- increase in fluorescence intensity upon addition of ZnCl2 ([5]; in vitro, 50% acetonitrile): > 100 fold

Source: patent publication US8883962B2, “Zinc-responsive peptides, and methods of use thereof” (Massachusetts Institute of Technology, priority 2012, dated 2014)
